ChEMBL document CHEMBL5143602, “Design, synthesis and antibacterial evaluation of pleuromutilin derivatives” (Bioorg Med Chem, 2022)
≈ marks a conversion by molar mass, not a printed value. Calls of active or inactive are those of the source. No cut-off for these calls is given here.

Columns and labels:
[1] = tested on: HGC-27; experiment: Cytotoxicity against human HGC-27 cells assessed as cell growth inhibition measured after 72 hrs by MTT assay; assay type: functional, cell-based; conditions: HGC-27, 72 h
[2] = tested on: Staphylococcus epidermidis; experiment: Antibacterial activity against Staphylococcus epidermidis ATCC12228 assessed as inhibition of bacterial growth incubated for 18 hrs by two-fold serial dilution method; assay type: functional
[3] = tested on: Enterococcus faecium; experiment: Antibacterial activity against Enterococcus faecium ATCC19434 assessed as inhibition of bacterial growth incubated for 18 hrs by two-fold serial dilution method; assay type: functional
[4] = tested on: Staphylococcus aureus; experiment: Antibacterial activity against methicillin-sensitive Staphylococcus aureus ATCC 29213 assessed as inhibition of bacterial growth incubated for 18 hrs by two-fold serial dilution method; assay type: functional
[5] = tested on: MCF7; experiment: Cytotoxicity against human MCF7 cells assessed as cell growth inhibition measured after 72 hrs by MTT assay; assay type: functional, cell-based; conditions: MCF7, 72 h
[6] = tested on: HT-29; experiment: Cytotoxicity against human HT-29 cells assessed as cell growth inhibition measured after 72 hrs by MTT assay; assay type: functional, cell-based; conditions: HT-29, 72 h
[7] = tested on: Staphylococcus aureus; experiment: Bactericidal activity against methicillin-resistant Staphylococcus aureus ATCC 43300 at 4 times MIC and measured after 24 hrs by time kill curve assay relative to control; assay type: functional, organism-based
[8] = tested on: HepG2; experiment: Cytotoxicity against human HepG2 cells assessed as cell growth inhibition measured after 72 hrs by MTT assay; assay type: functional, cell-based; conditions: HepG2, 72 h
[9] = tested on: U-87 MG; experiment: Cytotoxicity against human U87 cells assessed as cell growth inhibition measured after 72 hrs by MTT assay; assay type: functional, cell-based, U-87MG ATCC
[10] = tested on: Staphylococcus aureus; experiment: Antibacterial activity against methicillin-resistant Staphylococcus aureus ATCC 43300 assessed as inhibition of bacterial growth incubated for 18 hrs by two-fold serial dilution method; assay type: functional
[11] = tested on: Mycoplasmoides pneumoniae; experiment: Antibacterial activity against Mycoplasma pneumoniae ATCC29342 assessed as inhibition of bacterial growth incubated for 18 hrs by two-fold serial dilution method; assay type: functional
[12] = tested on: Staphylococcus aureus; experiment: Bactericidal activity against methicillin-resistant Staphylococcus aureus ATCC 43300 assessed as decrease in bacterial propagation at 2 to 8 times MIC and measured after 24 hrs by time kill curve assay relative to control; assay type: functional, organism-based
[13] = tested on: Mycoplasmoides pneumoniae; experiment: Antibacterial activity against Mycoplasma pneumoniae ATCC15531 assessed as inhibition of bacterial growth incubated for 18 hrs by two-fold serial dilution method; assay type: functional
[14] = tested on: Mycoplasmoides pneumoniae; experiment: Antibacterial activity against drug resistant Mycoplasma pneumoniae assessed as inhibition of bacterial growth incubated for 18 hrs by two-fold serial dilution method; assay type: functional

SMILES | IC50 [1] | MIC [2] | MIC [3] | MIC [4] | IC50 [5] | IC50 [6] | Activity [7] | IC50 [8] | IC50 [9] | MIC [10] | MIC [11] | Activity [12] | MIC [13] | MIC [14]
C=C[C@]1(C)C[C@@H](OC(=O)CSCCN(CC)CC)[C@]2(C)[C@H](C)CC[C@]3(CCC(=O)[C@H]32)[C@@H](C)[C@@H]1O [TIAMULIN] | > 10 µM | 32 µg/mL (≈ 64.8 µM) | 16 µg/mL (≈ 32.4 µM) | 0.5 µg/mL (≈ 1.01 µM) | > 10 µM | > 10 µM | Active | > 10 µM | > 10 µM | 0.25 µg/mL (≈ 0.506 µM) |  |  |  | 
C=C[C@]1(C)C[C@@H](OC(=O)CNC(=O)Nc2ccc(OC)cc2)[C@]2(C)[C@H](C)CC[C@]3(CCC(=O)[C@H]32)[C@@H](C)[C@@H]1O | > 10 µM | > 64 µg/mL | 8 µg/mL (≈ 15.2 µM) | 0.0625 µg/mL (≈ 0.119 µM) | > 10 µM | > 10 µM |  | > 10 µM | > 10 µM | 0.5 µg/mL (≈ 0.949 µM) | 0.0625 µg/mL (≈ 0.119 µM) | Active | 0.125 µg/mL (≈ 0.237 µM) | 0.5 µg/mL (≈ 0.949 µM)
C=C[C@]1(C)C[C@@H](OC(=O)CNC(=O)Nc2cccc(Br)c2)[C@]2(C)[C@H](C)CC[C@]3(CCC(=O)[C@H]32)[C@@H](C)[C@@H]1O | 3.95 µM | > 64 µg/mL | 4 µg/mL (≈ 6.95 µM) | 0.0625 µg/mL (≈ 0.109 µM) | > 10 µM | > 10 µM |  | > 10 µM | > 10 µM | 0.25 µg/mL (≈ 0.434 µM) | 0.25 µg/mL (≈ 0.434 µM) |  | 0.25 µg/mL (≈ 0.434 µM) | 1 µg/mL (≈ 1.74 µM)
